Source: patent US7407775B2, “Method for identifying Listeria monocytogenes and culture medium” (Biomerieux S.A., priority 2000, dated 2008)

Columns and labels:
Experiment in all cases: Experiment 1: esterase substrates, same chromogenic marker, fatty acids of different chain lengths
Format in all cases: cell-based
Design in all cases: key: —: the symbol “-” corresponds to the absence of color or intensity; 0 corresponds to no activity; 0.1 corresponds to a trace of color; 0.5 corresponds to very pale coloration; 1 corresponds to clear but low-intensity coloration; 1.5 corresponds to a degree of coloration intermediate between scores 1 and 2; 2 corresponds to clear coloration of moderate intensity; 2.5 corresponds to a degree of coloration intermediate between scores 2 and 3; 3 corresponds to intense coloration; 3.5 corresponds to a degree of coloration intermediate between scores 3 and 4; 4 corresponds to very intense coloration
Conditions in all cases: 37° C., substrate 250 mg/l
Listeria welshimeri 078 = test system: Listeria welshimeri 078
Description: (§1) A stock solution of each substrate at a concentration of 40 g/l was made up in a mixture of 40% Dimethylsulfoxide and 60% Polyoxyethylenesorbitan Monolaurate (Tween 20). An appropriate volume was added to three Columbia-type media while cooling to give a final substrate concentration of 250 mg/l. These dishes were divided into three areas and then each area was inoculated with a suspension (density=0.5 McFarland) of microorganisms taken from either the Applicant's own collection or the ATCC. The dishes were incubated for 48 hours at 37° C. The colonies which grew were examined by eye after 24 and 48 hours of incubation. Both the color and the intensity of the color of the colonies were recorded.
(§2) In Table 1 above, as in the following Tables, C represents the color of the colonies after incubation, I represents the intensity of the color, and the symbol “-” corresponds to the absence of color or intensity; finally, IT defines the incubation time. It should be noted that the intensity of the color is scored on an arbitrary scale but one which is consistent for all the biological specimens and media tested. This scale is valid for this experiment as well as all those that follow. It can be defined in the following way: • 0 corresponds to no activity, • 0.1 corresponds to a trace of color, • 0.5 corresponds to very pale coloration, • 1 corresponds to clear but low-intensity coloration, • 1.5 corresponds to a degree of coloration intermediate between scores 1 and 2, • 2 corresponds to clear coloration of moderate intensity, • 2.5 corresponds to a degree of coloration intermediate between scores 2 and 3, • 3 corresponds to intense coloration, • 3.5 corresponds to a degree of coloration intermediate between scores 3 and 4, • 4 corresponds to very intense coloration.

Listeria ivanovii 025 = test system: Listeria ivanovii 025
Description: as §1, §2

Listeria innocua 171 = test system: Listeria innocua 171
Description: as §1, §2

Listeria seeligeri 011 = test system: Listeria seeligeri 011
Description: as §1, §2

Listeria innocua 166 = test system: Listeria innocua 166
Description: as §1, §2

[1] = test system: Listeria grayi ATCC 19120
Description: as §1, §2

Listeria ivanovii 018 = test system: Listeria ivanovii 018
Description: as §1, §2

C (color of the colonies) (Listeria welshimeri 078; IT 24 h)	C (color of the colonies) (Listeria welshimeri 078; IT 48 h)	C (color of the colonies) (Listeria innocua 171; IT 48 h)	C (color of the colonies) (Listeria seeligeri 011; IT 48 h)	C (color of the colonies) (Listeria innocua 166; IT 48 h)	Structure (SMILES)	I (intensity of the color) (Listeria welshimeri 078; IT 24 h)	I (intensity of the color) (Listeria welshimeri 078; IT 48 h)	C (color of the colonies) (Listeria ivanovii 025; IT 24 h)	I (intensity of the color) (Listeria ivanovii 025; IT 24 h)	C (color of the colonies) (Listeria ivanovii 025; IT 48 h)	I (intensity of the color) (Listeria ivanovii 025; IT 48 h)	C (color of the colonies) (Listeria innocua 171; IT 24 h)	I (intensity of the color) (Listeria innocua 171; IT 24 h)	I (intensity of the color) (Listeria innocua 171; IT 48 h)	C (color of the colonies) (Listeria seeligeri 011; IT 24 h)	I (intensity of the color) (Listeria seeligeri 011; IT 24 h)	I (intensity of the color) (Listeria seeligeri 011; IT 48 h)	C (color of the colonies) (Listeria innocua 166; IT 24 h)	I (intensity of the color) (Listeria innocua 166; IT 24 h)	I (intensity of the color) (Listeria innocua 166; IT 48 h)	also measured
gray	gray	gray	gray	gray	CCCCCCCC(=O)Oc1c[nH]c2ccc(Br)cc12 [Blue-C8, 5-Bromo-3-indolyl octanoate]	0.5	1	—	—	—	—	—	—	0.3	—	—	0.5	gray	0.3	1	C (color of the colonies) ([1]; IT 24 h): —; I (intensity of the color) ([1]; IT 24 h): —; C (color of the colonies) ([1]; IT 48 h): —; I (intensity of the color) ([1]; IT 48 h): —; C (color of the colonies) (Listeria ivanovii 018; IT 24 h): —; I (intensity of the color) (Listeria ivanovii 018; IT 24 h): —; C (color of the colonies) (Listeria ivanovii 018; IT 48 h): —; I (intensity of the color) (Listeria ivanovii 018; IT 48 h): —
gray	gray	gray	gray	gray	CCCCCCCCC(=O)Oc1c[nH]c2ccc(Br)cc12 [Blue-C9, 5-Bromo-3-indolyl nonanoate]	0.5	1	—	—	—	—	—	—	0.3	—	—	0.5	—	—	0.5	C (color of the colonies) ([1]; IT 24 h): —; I (intensity of the color) ([1]; IT 24 h): —; C (color of the colonies) ([1]; IT 48 h): —; I (intensity of the color) ([1]; IT 48 h): —; C (color of the colonies) (Listeria ivanovii 018; IT 24 h): —; I (intensity of the color) (Listeria ivanovii 018; IT 24 h): —; C (color of the colonies) (Listeria ivanovii 018; IT 48 h): —; I (intensity of the color) (Listeria ivanovii 018; IT 48 h): —

Structure (SMILES)	C (color of the colonies) (Listeria welshimeri 078; IT 24 h)	C (color of the colonies) (Listeria welshimeri 078; IT 48 h)	C (color of the colonies) (Listeria innocua 171; IT 48 h)	C (color of the colonies) (Listeria seeligeri 011; IT 48 h)	C (color of the colonies) (Listeria innocua 166; IT 48 h)	I (intensity of the color) (Listeria welshimeri 078; IT 24 h)	I (intensity of the color) (Listeria welshimeri 078; IT 48 h)	C (color of the colonies) (Listeria ivanovii 025; IT 24 h)	I (intensity of the color) (Listeria ivanovii 025; IT 24 h)	C (color of the colonies) (Listeria ivanovii 025; IT 48 h)	I (intensity of the color) (Listeria ivanovii 025; IT 48 h)	C (color of the colonies) (Listeria innocua 171; IT 24 h)	I (intensity of the color) (Listeria innocua 171; IT 24 h)	I (intensity of the color) (Listeria innocua 171; IT 48 h)	C (color of the colonies) (Listeria seeligeri 011; IT 24 h)	I (intensity of the color) (Listeria seeligeri 011; IT 24 h)	I (intensity of the color) (Listeria seeligeri 011; IT 48 h)	C (color of the colonies) (Listeria innocua 166; IT 24 h)	I (intensity of the color) (Listeria innocua 166; IT 24 h)	I (intensity of the color) (Listeria innocua 166; IT 48 h)	also measured
CCCCCCCCCC(=O)Oc1c[nH]c2ccc(Br)cc12 [Blue-C10, 5-Bromo-3-indolyl decanoate]	—	gray	gray	gray	gray	—	0.5	—	—	—	—	—	—	0.3	—	—	0.5	—	—	0.5	C (color of the colonies) ([1]; IT 24 h): —; I (intensity of the color) ([1]; IT 24 h): —; C (color of the colonies) ([1]; IT 48 h): —; I (intensity of the color) ([1]; IT 48 h): —; C (color of the colonies) (Listeria ivanovii 018; IT 24 h): —; I (intensity of the color) (Listeria ivanovii 018; IT 24 h): —; C (color of the colonies) (Listeria ivanovii 018; IT 48 h): —; I (intensity of the color) (Listeria ivanovii 018; IT 48 h): —
